Laboratory results published in patent US20250179027A1, “CYCLOALKYL OR HETEROCYCLYL SUBSTITUTED HETEROARYL COMPOUND, AND COMPOSITION AND USE THEREOF” (Shenzhen TargetRx, Inc., priority 2022, published 2025).

What was measured:
[1] = target: T1, phosphorylated BTK Y223 in NIH/3T3 BTK WT cells (Homo sapiens, UniProt Q06187); assay: Phosphor-BTK(Y223) assay, NIH/3T3 BTK WT cells; type: cell-based; conditions: phosphorylated BTK Y223, NIH/3T3 BTK WT cells; read-out: NIH/3T3 BTK-WT pBTK IC50
T1 construct: expressed in transfected cells; host or cells: NIH/3T3 (mouse fibroblasts) engineered to express BTK WT
T1 sequence (Q06187 whole entry): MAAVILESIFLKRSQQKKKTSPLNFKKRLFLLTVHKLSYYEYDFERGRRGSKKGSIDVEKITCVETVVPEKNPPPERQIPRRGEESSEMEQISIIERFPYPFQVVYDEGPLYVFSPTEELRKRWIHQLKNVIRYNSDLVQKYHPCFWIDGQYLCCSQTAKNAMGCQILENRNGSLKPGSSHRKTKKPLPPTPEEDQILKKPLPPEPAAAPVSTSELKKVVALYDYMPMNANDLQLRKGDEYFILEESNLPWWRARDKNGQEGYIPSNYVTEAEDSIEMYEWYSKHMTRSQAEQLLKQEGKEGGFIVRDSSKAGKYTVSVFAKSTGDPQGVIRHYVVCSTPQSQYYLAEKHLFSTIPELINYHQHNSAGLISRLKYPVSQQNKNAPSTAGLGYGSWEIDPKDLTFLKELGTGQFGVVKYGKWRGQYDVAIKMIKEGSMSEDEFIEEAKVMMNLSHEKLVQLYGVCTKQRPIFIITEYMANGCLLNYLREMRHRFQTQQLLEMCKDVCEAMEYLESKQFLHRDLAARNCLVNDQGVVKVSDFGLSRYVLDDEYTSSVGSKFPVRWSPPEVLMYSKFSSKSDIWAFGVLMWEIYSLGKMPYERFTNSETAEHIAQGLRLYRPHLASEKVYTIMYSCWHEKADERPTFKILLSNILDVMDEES
Outline: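 NIH/3T3 cells expressing BTK WT (7.5k/well) or C481S (10k/well) were treated with compound for 0.5 h at 37 °C, then 1 mM Na3VO4 was added for 2 h. Lysates were probed overnight at room temperature with HTRF p-BTK(Y223) cryptate/d2 antibodies (665/620 nm ratio). IC50 came from nonlinear fit of % inhibition against log concentration.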

[2] = target: T2, phosphorylated BTK Y223 in NIH/3T3 BTK C481S cells (Homo sapiens, UniProt Q06187, C481S); assay: Phosphor-BTK(Y223) assay, NIH/3T3 BTK C481S cells; type: cell-based; conditions: phosphorylated BTK Y223, NIH/3T3 BTK C481S cells; read-out: NIH/3T3 BTK-C481S pBTK IC50
T2 construct: expressed in transfected cells; host or cells: NIH/3T3 (mouse fibroblasts) engineered to express BTK C481S
T2 sequence (Q06187 whole entry C481S): as the sequence (Q06187 whole entry) above, with C481S counted along it
Description: The purpose of this assay is to simply, quickly and directly detect the endogenous level of BTK in cells. The specific assay steps are as follows: Day 1: NIH/3T3 BTK WT cells (7.5 k/well) and NIH/3T3 BTK C481S cells (10 k/well) were plated in 96-well plates, respectively, and cultured overnight at 37° C. and 5% CO2.
• 1. A 3-fold final concentration gradient dilution of the compound was prepared, and 50 μL was added to 100 μL of cell culture; 0.5% DMSO was used as a positive control for cell growth. • 2. The plate was incubated at 37° C., 5% CO2 for 0.5 h. • 3. Na3VO4 with a final concentration of 1 mM was added, and incubated at 37° C. and 5% CO2 for 2 hours. • 4. During the incubation, the following reagents were prepared: 1× added lysis buffer: 3 vol ddH2O+1 vol 4× lysis buffer+100× blocking reagent. p-BTK (Y223) cryptate-antibody and p-BTK (Y223) d2-antibody working solutions: 1 volume of each cryopreserved antibody (stored at −20° C.) was added to 19 times volumes of assay buffer (stored at 4° C.). • 5. After the incubation, the medium was removed and 50 μL of 1× added lysis buffer was added; The mixture was centrifuged at 500 rpm for 30 min at room temperature. • 6. The lysate was mixed well and 16 μL was transferred to a 384-well plate; 1× added lysis buffer was used as a blank control. • 7. 4 μL of pre-mixed working solutions of the two antibodies (cryptate Ab:d2 Ab=1:1) were added and the plate was sealed. • 8. The plate was incubated overnight at room temperature.
Biotek cytation3.0 microplate reader was used to read the plate at 665 nm and 620 nm, and the ratio of 665/620 nm per well was calculated.
IC50 was calculated using GraphPad Prism 7.0 software.
The following nonlinear fitting formula was used to obtain the phosphorylated BTK Y223 IC50 (half phosphorylation inhibitory concentration) of the compounds:
[formula] • X: Compound concentration log value • Y: Inhibition rate (% inhibition)
The formula for calculating cell phosphorylation inhibition rate (% inhibition rate) was: […]

Row | IC50 [1] [nM] | IC50 [2] [nM] | Structure (SMILES)
1 | ≤ 25 | ≤ 25 | COc1ccc(F)cc1C(=O)NCc1ccc(-c2nn(C3CCC(CO)OC3)c3ncnc(N)c23)cc1 (single isomer, unassigned) [Example 18, N-(4-(4-amino-1-(6-(hydroxymethyl)tetrahydro-2H-pyran-3-yl)-1H-pyrazolo[3,4-d]pyrimidin-3-yl)benzyl)-5-fluoro-2-methoxybenzamide]
2 | ≤ 25 | ≤ 25 | COc1ccc(F)cc1C(=O)NCc1ccc(-c2nc(C3CCCC(O)C3)n3ccnc(N)c23)cc1 (single isomer, unassigned) [Example 22, N-(4-(8-amino-3-(3-hydroxycyclohexanyl)imidazo[1,5-a]pyrazin-1-yl)benzyl)-5-fluoro-2-methoxybenzamide]
3 | ≤ 25 | ≤ 25 | COc1ccc(F)cc1C(=O)NCc1ccc(-c2nn(C3CCC(O)C3)c3ncnc(N)c23)cc1 (single isomer, unassigned) [Example 31, N-(4-(4-amino-1-(3-hydroxycyclopentanyl)-1H-pyrazolo[3,4-d]pyrimidin-3-yl)benzyl)-5-fluoro-2-methoxybenzamide]
4 | 25 to 50 | 50 to 100 | COc1ccc(F)cc1C(=O)NCc1ccc(-c2cc(C3CCC(CO)OC3)n3ncnc(N)c23)cc1 (single isomer, unassigned) [Example 59, N-(4-(4-amino-7-(6-(hydroxymethyl)tetrahydro-2H-pyran-3-yl)pyrrolo[2,1-f][1,2,4]triazin-5-yl)benzyl)-5-fluoro-2-methoxybenzamide]
5 | ≤ 25 | ≤ 25 | COc1ccc(F)cc1C(=O)NCc1ccc(-c2cc(C3CCC(CO)OC3)n3ncnc(N)c23)cc1 (single isomer, unassigned) [Example 60, N-(4-(4-amino-7-(6-(hydroxymethyl)tetrahydro-2H-pyran-3-yl)pyrrolo[2,1-f][1,2,4]triazin-5-yl)benzyl)-5-fluoro-2-methoxybenzamide]
6 | ≤ 25 | ≤ 25 | COc1ccc(F)cc1C(=O)NCc1ccc(-c2nc(C3CCCC(O)C3)n3ccnc(N)c23)cc1 (stereo not drawn) [Example 20, N-(4-(8-amino-3-(3-hydroxycyclohexanyl)imidazo[1,5-a]pyrazin-1-yl)benzyl)-5-fluoro-2-methoxybenzamide]
7 | ≤ 25 | ≤ 25 | COc1ccc(F)cc1C(=O)NCc1ccc(-c2nn(C3CCC(O)CC3)c3ncnc(N)c23)cc1 [Example 29, N-(4-(4-amino-1-((1R,4R)-4-hydroxycyclohexyl)-1H-pyrazolo[3,4-d]pyrimidin-3-yl)benzyl)-5-fluoro-2-methoxybenzamide]
8 | ≤ 25 | ≤ 25 | COc1ccc(F)cc1C(=O)NCc1ccc(-c2nn([C@H]3CC[C@@H](O)CC3)c3ncnc(N)c23)cc1 [Example 30, N-(4-(4-amino-1-((1S,4S)-4-hydroxycyclohexyl)-1H-pyrazolo[3,4-d]pyrimidin-3-yl)benzyl)-5-fluoro-2-methoxybenzamide]
9 | ≤ 25 | ≤ 25 | COc1ccc(F)cc1C(=O)NCc1ccc(-c2nn([C@H]3CC[C@@H](CO)CC3)c3ncnc(N)c23)cc1 [Example 55, cis-N-(4-(4-amino-1-((1S,4S)-4-(hydroxymethyl)cyclohexyl)-1H-pyrazolo[3,4-d]pyrimidin-3-yl)benzyl)-5-fluoro-2-methoxybenzamide]
10 | ≤ 25 | ≤ 25 | COc1ccc(F)cc1C(=O)NCc1ccc(-c2nn([C@H]3CC[C@H](CO)CC3)c3ncnc(N)c23)cc1 [Example 56, trans-N-(4-(4-amino-1-((1R,4R)-4-(hydroxymethyl)cyclohexyl)-1H-pyrazolo[3,4-d]pyrimidin-3-yl)benzyl)-5-fluoro-2-methoxybenzamide]

Row | Structure (SMILES) | IC50 [1] [nM] | IC50 [2] [nM]
11 | COc1ccc(F)cc1C(=O)NCc1ccc(-c2nn(C3CCCC(O)C3)c3ncnc(N)c23)cc1 (single isomer, unassigned) [Example 5] | ≤ 25 | ≤ 25
12 | COc1ccc(F)cc1C(=O)NCc1ccc(-c2nn(C3CCCC(O)C3)c3ncnc(N)c23)cc1 (single isomer, unassigned) [Example 6] | ≤ 25 | ≤ 25
13 | COc1ccc(F)cc1C(=O)NCc1ccc(-c2nn(C3CCCC(O)C3)c3ncnc(N)c23)cc1 (single isomer, unassigned) [Example 7] | ≤ 25 | 25 to 50
14 | COc1ccc(F)cc1C(=O)NCc1ccc(-c2nn(C3CCCC(O)C3)c3ncnc(N)c23)cc1 (single isomer, unassigned) [Example 8] | ≤ 25 | 50 to 100
15 | COc1ccc(F)cc1C(=O)NCc1ccc(-c2nn(C3CCCC(O)C3)c3ncnc(N)c23)cc1 (stereo not drawn) [Example 4] | ≤ 25 | 25 to 50
